Measurements from ChEMBL document CHEMBL1201862, “PubChem BioAssay data set” (2004).
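Tested at 5 concentrations; 48 h exposure; 96-well plates; endpoints linearly interpolated, else capped at highest concentration. At the GI50, growth is halved.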 Active and inactive are the calls of the source. Cut-off read from the data, not from the text of the source: active = GI50 up to about 1.1 µM and inactive = higher.

Columns and labels:
Assay in all cases: growth of human tumour cells (NCI), 48 h
ACHN = test system: ACHN
CCRF-CEM = test system: CCRF-CEM
COLO 205 = test system: COLO 205
HT-29 = test system: HT-29
M14 = test system: M14
OVCAR-3 = test system: OVCAR-3
OVCAR-5 = test system: OVCAR-5
SF-268 = test system: SF-268
SF-539 = test system: SF-539
SN12C = test system: SN12C
SNB-75 = test system: SNB-75
SW-620 = test system: SW-620
TK-10 = test system: TK-10
U-251 = test system: U-251
UO-31 = test system: UO-31
HCC 2998 = test system: HCC 2998
RXF 393 = test system: RXF 393

Measured: GI50

O=[N+]([O-])c1nccn1COCCF
inactive: ACHN > 100 µM | CCRF-CEM > 100 µM | COLO 205 > 100 µM | HT-29 > 100 µM | M14 > 100 µM | OVCAR-3 > 100 µM | OVCAR-5 > 100 µM | SF-268 > 100 µM | SF-539 > 100 µM | SN12C > 100 µM | SNB-75 64.6 µM | SW-620 > 100 µM | TK-10 > 100 µM | U-251 > 100 µM | UO-31 > 100 µM

CC(C)OP(=O)(OC(C)C)/C(=N/Nc1ccc([N+](=O)[O-])cc1)NN
inactive: ACHN 98.6 µM | CCRF-CEM > 100 µM | COLO 205 > 100 µM | HCC 2998 > 100 µM | M14 > 100 µM | OVCAR-3 > 100 µM | OVCAR-5 > 100 µM | SF-268 > 100 µM | SF-539 > 100 µM | SN12C > 100 µM | SNB-75 83.2 µM | SW-620 > 100 µM | TK-10 > 100 µM | U-251 > 100 µM | UO-31 88.5 µM

O=C(CCc1nnc2s/c(=C\c3ccccc3Cl)c(=O)n12)Nc1cc(Cl)ccc1Cl
inactive: ACHN > 100 µM | CCRF-CEM > 100 µM | HCC 2998 > 100 µM | HT-29 > 100 µM | M14 > 100 µM | OVCAR-3 > 100 µM | OVCAR-5 > 100 µM | RXF 393 > 100 µM | SF-268 > 100 µM | SF-539 > 100 µM | SN12C > 100 µM | SW-620 > 100 µM | TK-10 > 100 µM | U-251 > 100 µM | UO-31 > 100 µM

[O-]/N=[N+](/[O-])C1CCCCC1=[N+]1CCOCC1 (stereo unspecified)
inactive: ACHN > 100 µM | CCRF-CEM > 100 µM | COLO 205 > 100 µM | HT-29 > 100 µM | M14 > 100 µM | OVCAR-3 > 100 µM | OVCAR-5 > 100 µM | SF-268 > 100 µM | SN12C > 100 µM | SW-620 > 100 µM | TK-10 > 100 µM | U-251 > 100 µM | UO-31 > 100 µM

O=C(c1cc2ccccc2[nH]1)C(O)(c1cc2ccccc2[nH]1)c1cc2ccccc2[nH]1
inactive: ACHN > 246 µM | CCRF-CEM > 246 µM | COLO 205 > 246 µM | HCC 2998 > 246 µM | HT-29 > 246 µM | OVCAR-3 20 µM | OVCAR-5 > 246 µM | RXF 393 > 246 µM | SF-268 > 246 µM | SF-539 129 µM | SN12C > 246 µM | SW-620 > 246 µM | TK-10 > 246 µM | U-251 > 246 µM

CC(=O)c1sc(Nc2nnc(-c3ccc(-c4nnc(Nc5nc(C)c(C(C)=O)s5)o4)cc3)o2)nc1C
inactive: ACHN > 100 µM | CCRF-CEM > 100 µM | COLO 205 > 100 µM | HCC 2998 > 100 µM | HT-29 > 100 µM | M14 > 100 µM | OVCAR-3 > 100 µM | OVCAR-5 > 10 µM | RXF 393 > 100 µM | SF-268 > 100 µM | SN12C > 100 µM | SW-620 > 100 µM | TK-10 > 100 µM | U-251 > 100 µM | UO-31 > 10 µM

COC(=O)c1cc(CC(C)C)c2c(c1)[nH]c1ccccc12
inactive: ACHN > 100 µM | CCRF-CEM > 100 µM | COLO 205 > 100 µM | HCC 2998 70.8 µM | HT-29 > 100 µM | M14 > 100 µM | OVCAR-3 > 100 µM | OVCAR-5 > 100 µM | SF-268 > 100 µM | SF-539 > 100 µM | SN12C > 100 µM | SNB-75 18.2 µM | SW-620 47.2 µM | TK-10 > 100 µM | U-251 > 100 µM | UO-31 > 100 µM

Cc1ccc(NCC2(/N=C/c3ccccc3)OC(CO)C(O)C2O)cc1 (stereo unspecified)
inactive: ACHN 74.3 µM | CCRF-CEM 31.6 µM | COLO 205 42.2 µM | HCC 2998 91.2 µM | HT-29 35.8 µM | M14 40.9 µM | OVCAR-3 41.7 µM | OVCAR-5 > 100 µM | SF-268 81.1 µM | SF-539 41.7 µM | SNB-75 26.2 µM | SW-620 36.7 µM | TK-10 > 100 µM | U-251 24.2 µM | UO-31 61.7 µM

O=S1(=O)OCCOS(=O)(=O)C1(Br)Br
inactive: CCRF-CEM > 100 µM | COLO 205 > 100 µM | HCC 2998 > 100 µM | HT-29 > 100 µM | M14 > 100 µM | OVCAR-3 > 100 µM | SF-268 > 100 µM | SF-539 > 100 µM | SN12C > 100 µM | SNB-75 > 100 µM | SW-620 > 100 µM | TK-10 > 100 µM | UO-31 62.7 µM

Cc1ccc(C2C(Cl)C(=O)N2NC(=O)c2ccc(N)cc2)cc1 (stereo unspecified)
inactive: ACHN 31.9 µM | CCRF-CEM 7.73 µM | COLO 205 22.6 µM | HCC 2998 > 100 µM | HT-29 21.2 µM | M14 18.7 µM | OVCAR-3 17.4 µM | OVCAR-5 24.3 µM | SF-539 23.9 µM | SN12C 22.7 µM | SNB-75 47.6 µM | SW-620 21 µM | TK-10 43.6 µM | U-251 14.6 µM | UO-31 30 µM
